In patent US20200157144A1, “ANTIMICROBIAL PEPTIDOMIMETICS” (priority 2017, published 2020):
≈ marks a conversion by molar mass, not a printed value. Like-named read-outs stand apart in the source and are kept apart here. Square brackets hold non-standard residues; d marks the D form. Peptide text beside a SMILES is read from it. dBip(4'-Cl) = N[C@H](Cc1ccc(-c2ccc(Cl)cc2)cc1)C(=O)O

How the values were obtained:
[1] = tested on: Mupirocin-resistant MRSA (ATCC-BAA-1556); assay: Bactericidal/static determination assay at 4xMIC (FIG. 2); format: cell-based, Staphylococcus aureus; conditions: 4×MIC
[2] = tested on: Staphylococcus aureus ATCC 19636; assay: microbe, parasite or virus in culture; format: cell-based; conditions: ATCC 19636
Procedure: (§1) The antibacterial potency of Compound 34 was measured using the in vitro broth microdilution assay under assay conditions described by the Clinical and Laboratory Standards Institute. […] The test substance was dissolved in 100% DMSO (unless stated below), suspended completely by sonication or vortexing, diluted by 2-fold serial titrations in the same vehicle, for a total of 10 test concentrations (final concentrations: 100, 50, 25, 12.5, 6.25, 3.125, 1.56, 0.78, 0.39, 0.2 μM). A 4 μL aliquot of each dilution was added to 196 μL of broth medium seeded with the organism suspension in wells of a 96 well plate (bacterial count: 2-8×10^5 colony forming units/mL final). The final volume was 200 μL in each well and the final DMSO concentration was 2 percent. The incubation time is either 1 or 2 days at 36° C. All strains tested underwent aerobic respiration, except for ATCC BAA-1805 and ATCC 29399. Following incubation, the test plates were visually examined and wells were scored for growth or complete growth inhibition to define the minimum inhibitory concentration. Each test substance was evaluated in duplicate and the results below are the duplicate test values.

[3] = tested on: Staphylococcus aureus ATCC BAA-1717; assay: microbe, parasite or virus in culture; format: cell-based; conditions: ATCC BAA-1717
Procedure: as §1

[4] = tested on: Staphylococcus epidermidis ATCC 12228; assay: microbe, parasite or virus in culture; format: cell-based; conditions: ATCC 12228
Procedure: as §1

S. aureus ECL 2963646 = assay: microbe, parasite or virus in culture; format: cell-based
Procedure: (§2) The antibacterial potency of Compound 34 was measured using the in vitro broth microdilution assay under assay conditions described by the Clinical and Laboratory Standards Institute. […] The test substance was dissolved in 100% DMSO (unless stated below), suspended completely by sonication or vortexing, diluted by 2-fold serial titrations in the same vehicle, for a total of 11 test concentrations. A 4 μL aliquot of each dilution was added to 196 μL of broth medium seeded with the organism suspension in wells of a 96 well plate (bacterial count: 2-8×10^5 colony forming units/mL final). The final volume was 200 μL in each well and the final DMSO concentration was 2%. The incubation time is 1 day at 36° C. All strains tested underwent aerobic respiration. Following incubation, the test plates were visually examined and wells were scored for growth or complete growth inhibition to define the minimum inhibitory concentration. Each test substance was evaluated in duplicate and the results below are the duplicate test values. Vehicle-control and an active reference agent were used as blank and positive controls, respectively.

S. aureus NARSA VRS11b = assay: microbe, parasite or virus in culture; format: cell-based
Procedure: as §2

S. aureus NARSA VRS2 = assay: microbe, parasite or virus in culture; format: cell-based
Procedure: as §2

S. aureus NARSA VRS3a = assay: microbe, parasite or virus in culture; format: cell-based
Procedure: as §2

[5] = tested on: S. aureus (ATCC BAA-1556); assay: microbe, parasite or virus in culture
Procedure: S. aureus (BAA-1556) was from ATCC. Mupirocin (Cat # M2955) was purchased from TCI chemicals (India) Pvt. […] Ltd, India, Cation adjusted Mueller Hinton broth (CAMHB) and Mueller Hinton Agar (MHA) (Cat # M1657) were from HiMedia Laboratories Pvt. Ltd, India.
The MIC assay was done based on CLSI guidelines in a microtitre plate format (1, 2). Preparation and dilution of Test Item (TI) stock solutions: A 1280 μg/ml stock of Compound 34 was prepared by dissolving 1.28 mg in 1.0 ml of sterile water to obtain the Master Stock (MS) solution. The MS solution was diluted 2-fold to obtain a series of Working Stock (WS) solutions (Table 7). The final concentration of solvent in the assay was 2.5% and the assay volume was […].
Preparing the inoculum: One day before initiation of experiment, an isolated colony of S. aureus (ATCC BAA-1556) was inoculated into sterile CAMHB and incubated at 37° C. to exponential phase. After incubation, the turbidity was adjusted to that of a 0.5 McFarland Standard (approximately equivalent to 1.0×10^8 CFU/ml) and diluted to ˜1.0×10^6 CFU/ml.
MIC Assay: The MIC assay was performed in a 96 well microtitre plate in a total assay volume of 100 μl (Table 7). Each well containing different concentrations of test compound (concentration range between 0.015625 and 16.0 μg/ml) was inoculated with 50 μl of bacterial suspension (prepared from the inoculum grown overnight and adjusted approximately to 5.0×10^5 CFU/ml) along with culture control (CC, culture in broth), broth control (BC, broth only), and vehicle control (VC, 2.5% solvent in broth plus culture). The plate was incubated at 37° C. for 24 hr and turbidity was measured spectrophotometrically (Absorbance microplate reader, BioTek® India, ELx800™) at 600 nm and visually. The experiment was done in duplicates. The inoculum was also plated for enumeration of bacteria. The MIC was defined as the lowest concentration of test compound that prevented bacterial growth (lack of turbidity by OD at 600 nm and visual inspection relative to no growth control).

SMILES: N=C(N)NCCC[C@@H](NC(=O)[C@@H](Cc1ccc(-c2ccc(Cl)cc2)cc1)NC(=O)[C@@H](CCCNC(=N)N)NC(=O)[C@H](N)Cc1ccc(-c2ccc(Cl)cc2)cc1)C(N)=O [Compound 34] (H-[dBip(4'-Cl)][dR][dBip(4'-Cl)][dR]-NH2)
- bactericidal activity compared to Linezolid, Retapamulin and Vancomycin [1]: higher bactericidal activity than Linezolid, Retapamulin and Vancomycin
- MIC [2]: 3.13 µM (≈ 2.64 µg/mL)
- MIC [3]: 3.13 µM (≈ 2.64 µg/mL)
- MIC [4]: 3.13 µM (≈ 2.64 µg/mL)
- MIC (S. aureus ECL 2963646; ECL 2963646, read-out: MIC): 2.37 µM
- MIC (S. aureus ECL 2963646; S. aureus ECL 2963646, CAMHB II): 2.0 µg/mL
- MIC (S. aureus NARSA VRS11b; NARSA VRS11b, read-out: MIC): 1.18 µM
- MIC (S. aureus NARSA VRS11b; S. aureus NARSA VRS11b, CAMHB II): 1.0 µg/mL
- MIC (S. aureus NARSA VRS2; NARSA VRS2, read-out: MIC): 2.37 µM
- MIC (S. aureus NARSA VRS2; S. aureus NARSA VRS2, CAMHB II): 2.0 µg/mL
- MIC (S. aureus NARSA VRS3a; NARSA VRS3a, read-out: MIC): 2.37 µM
- MIC (S. aureus NARSA VRS3a; S. aureus NARSA VRS3a, CAMHB II): 2.0 µg/mL
- Mean MIC ([5]; ATCC BAA-1556, 24 h): 2.37 µM
- Mean MIC ([5]; S. aureus (ATCC BAA-1556), CAMHB, 37° C., 24 hr): 2.00 µg/mL
